Results as given in US11077163B2, “Peptide for treating ocular diseases and composition for treating ocular diseases comprising same” (GemVax & KAEL CO., LTD., priority 2015, dated 2021).

How the values were obtained:
Assay type in all cases: in vivo, Brown Norway rats
[1] = tested on: laser-induced choroidal neovascularization (CNV); assay: CNV area by isolectin staining of retinal pigment epithelium-choroid-sclera tissues in laser-induced CNV animal model; conditions: subcutaneous once a day, isolectin-stained area at 2 weeks after laser
Description: Brown Norway rats were anesthetized, and pupils of the eyes were dilated using 0.5% phenylephrine (pupillary dilatation). The target rats having the dilated pupils of the eyes were irradiated with a 577 nm laser (577 nm, diode, 10 μm, 0.05 seconds) 6 to 8 times per eye to cause neovascularization in the choroid. Upon laser irradiation, the eyes were covered with a cover glass, and the rupture of Bruch's membranes was confirmed from the fact that bubbles occurred during irradiation with lasers using a slit lamp delivery system. […] An area of tissues stained with isolectin specific to vascular endothelial cells was measured to determine CNV areas in the control and the groups in which pep1 was administered. The groups in which pep1 was administered and the control complied with the experimental groups disclosed in Example 2, and the thicknesses of all lesions in each of the groups were measured to check whether there was a difference in CNV areas between the groups.

[2] = tested on: laser-induced choroidal neovascularization (CNV); assay: CNV thickness by optical coherence tomography (OCT) in laser-induced CNV animal model; conditions: subcutaneous once a day
Description: Brown Norway rats were anesthetized, and pupils of the eyes were dilated using 0.5% phenylephrine (pupillary dilatation). The target rats having the dilated pupils of the eyes were irradiated with a 577 nm laser (577 nm, diode, 10 μm, 0.05 seconds) 6 to 8 times per eye to cause neovascularization in the choroid. Upon laser irradiation, the eyes were covered with a cover glass, and the rupture of Bruch's membranes was confirmed from the fact that bubbles occurred during irradiation with lasers using a slit lamp delivery system. In a laser-induced CNV […] model, the rats were randomized to experimental groups in which the peptide pep1 prepared by the method disclosed in Example 1 was administered at three doses of 0.1, 1, and 10 nM, and the control (vehicle) in which pep1 was not administered, and a drug was subcutaneously administered to the rats once a day for a period of time starting from the day before 3 days of laser irradiation to 2 weeks after the laser irradiation. To compare the CNV activities between various groups, a Kruskal-Wallis test was used. […] The groups in which pep1 was administered and the control complied with the experimental groups disclosed in Example 2, and the thicknesses of all lesions in each of the groups were measured to check whether there was a difference in CNV thicknesses between the groups.

[3] = tested on: laser-induced choroidal neovascularization (CNV); assay: Angiographic leakage in the choroid by fluorescein angiography (FAG) in laser-induced CNV animal model; conditions: subcutaneous once a day, FAG at 2 weeks after laser
Description: Brown Norway rats were anesthetized, and pupils of the eyes were dilated using 0.5% phenylephrine (pupillary dilatation). The target rats having the dilated pupils of the eyes were irradiated with a 577 nm laser (577 nm, diode, 10 μm, 0.05 seconds) 6 to 8 times per eye to cause neovascularization in the choroid. Upon laser irradiation, the eyes were covered with a cover glass, and the rupture of Bruch's membranes was confirmed from the fact that bubbles occurred during irradiation with lasers using a slit lamp delivery system. In a laser-induced CNV […] model, the rats were randomized to experimental groups in which the peptide pep1 prepared by the method disclosed in Example 1 was administered at three doses of 0.1, 1, and 10 nM, and the control (vehicle) in which pep1 was not administered, and a drug was subcutaneously administered to the rats once a day for a period of time starting from the day before 3 days of laser irradiation to 2 weeks after the laser irradiation. To compare the CNV activities between various groups, a Kruskal-Wallis test was used. In this case, the comparison between two groups was performed using a Mann-Whitney U test. A p value was considered to be statistically significant when the p value was less than 0.05. After CNV was induced with lasers, the rats in the groups in which pep1 was administered and the rats in the control were anesthetized after the elapse of 2 weeks, and a contrast medium was intraperitoneally injected at a dose of 0.1 mL (10% fluorescein disodium salt). Levels of angiographic leakage in the choroid between the control and the groups in which pep1 was administered were compared using fluorescein angiography (FAG). The groups in which pep1 was administered and the control complied with the experimental groups disclosed in Example 2, and the leakage levels at all lesions in each of the groups were measured to check whether there was a difference in angiographic leakage in the choroid between the groups. […]

## EARPALLTSRLRFIPK (listed as Homo sapiens) [pep1, telomerase-derived peptide of 16 amino acids, location [611-626] on human telomerase]
[1]; all groups 0.1, 1 and 10 nM
  CNV area compared to the control: statistically significantly reduced
[1]; group at 1 nM
  CNV area compared to the control: most drastically reduced
[2]; all groups 0.1, 1 and 10 nM, from 3 days before to 2 weeks after laser irradiation, OCT at 2 weeks
  CNV thickness compared to the control: statistically significantly reduced
[2]; group at 1 nM, OCT at 2 weeks after laser
  CNV thickness compared to the control: most drastically reduced
[3]; all groups 0.1, 1 and 10 nM
  angiographic leakage level compared to the control: reduced
  ratio of lesions with Grade 2B (clinically severe leakage level) compared to the control: reduced
[3]; groups at 1 and 10 nM
  ratio of lesions with Grade 2B (clinically severe leakage level) compared to the control: drastically reduced
